The values below come from PubChem BioAssay (NCI).

Common to all, as to experiment: NCI-60 cell line screen, 48 h
The test system of test [1] is MOLT-4 leukemia.
The subject of test [2] is EKVX NSCLC.
For test [3], the system named is M14 melanoma.
For test [4], the system named is A549 NSCLC.
The subject of test [5] is RPMI-8226 leukemia.
Test [6] relates to SW-620 colon.
Test [7] relates to OVCAR-3 ovarian.
The subject of test [8] is MDA-MB-435.
The test system of test [9] is IGROV1 ovarian.
Test [10] concerns SN12C renal.

Structures are written as SMILES.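 Assay format: 96-well plates, 48-hour exposure. The concentration for 50% growth inhibition is given as GI50. TGI: concentration producing complete growth inhibition.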

In the case of `Cc1nc2cncc(C#Cc3cncc(C(=O)Nc4ccc(CN5CCN(C)CC5)c(C(F)(F)F)c4)c3)c2nc1C`, the GI50 in test [1] is 0.45 µM; in test [2], 0.8 µM; in test [3], 0.144 µM; in test [4], 0.585 µM; in test [5] it was 0.487 µM; in [6] it was 0.284 µM. Further, the GI50 in test [7] was 0.899 µM; in test [8], 0.21 µM; in [9], 0.206 µM; in test [10], 0.275 µM. The TGI in test [1] was determined as 10.4 µM; in test [2] it was 5.05 µM; in [3], 0.624 µM; in test [4], 7.28 µM; in test [5] it was 4.49 µM; in test [6], 1.64 µM. In addition, the TGI in test [7] came out at 6.54 µM; in [8] it was 3.03 µM; in test [9], 1.29 µM; in test [10], 17 µM.

In the case of `O=[N+]([O-])c1cc(O)c(O)cc1-c1cn2ccsc2n1`, the GI50 in test [1] is 75.9 µM; in test [2], more than 100 µM; in test [3] it was 20 µM; in test [4], 41.3 µM; in test [5], 54.6 µM; in test [6], 45.6 µM. Further, the GI50 is 23.6 µM in test [7], 47.3 µM in test [8], 32.4 µM in test [9] and 85.6 µM in test [10]. In addition, the TGI in test [1] is more than 100 µM; in [2], more than 100 µM; in test [3], 57.7 µM; in test [4], more than 100 µM; in test [5] it was more than 100 µM; in [6], more than 100 µM. The TGI in [7] is 64 µM; in [8], more than 100 µM; in [9] it was more than 100 µM; in test [10] it was more than 100 µM.

As to `CCc1ccc(-c2ccc(=O)n(-c3ccc(S(N)(=O)=O)cc3)n2)cc1`, the GI50 in [1] is 0.884 µM; in [2], 5.65 µM; in [3] it was 0.764 µM; in test [4] it was 3.14 µM; in test [5], 0.759 µM; in test [6], 0.56 µM. Further, the GI50 in test [7] was 0.957 µM; in [8] it was 0.252 µM; in test [9] it was 3.32 µM; in test [10], 9.88 µM. The TGI in test [1] is more than 90 µM; in test [2], more than 100 µM; in [3] it was more than 22.2 µM; in [4], more than 100 µM; in test [5], 7.33 µM; in test [6] it was more than 100 µM. Also, the TGI in test [7] was more than 20.2 µM; in test [8], 1.71 µM; in [9], more than 77.6 µM; in test [10], more than 100 µM.

As to `OCc1cccc(-c2ccc3ncc(-c4nc(NC5CC5)ncc4F)n3c2)c1`, the GI50 was 0.266 µM in test [1]; 0.296 µM in test [2]; 0.328 µM in test [3]; 0.341 µM in test [4]; 0.22 µM in test [5]; 0.258 µM in test [6]. Moreover, the GI50 in [7] is 0.27 µM; in test [8] it was 0.284 µM; in test [9], 0.227 µM; in test [10] it was 0.281 µM. For the same molecule, the TGI in [2] was 0.946 µM; in [3] it was 1.15 µM; in [4] it was more than 100 µM; in test [5], 0.788 µM; in test [6] it was 0.971 µM; in [7] it was 1.09 µM. In addition, the TGI amounted to 0.919 µM in [8], 1.32 µM in test [9] and 1.57 µM in [10].

As to `CCCCCCCCCCCCCC[P+](CCCCCC)(CCCCCC)CCCCCC`, the GI50 is 0.0689 µM in [1]; 0.0632 µM in test [2]; 0.0521 µM in test [3]; 0.292 µM in test [4]; 0.0158 µM in test [5]; 0.0341 µM in test [6]. The GI50 in test [7] was 0.0345 µM; in test [8], 0.0372 µM; in [9], 0.0705 µM; in [10] it was 0.041 µM. Besides, the TGI in test [1] is 0.952 µM; in test [2], 0.917 µM; in [3], 2.91 µM; in test [4] it was more than 100 µM; in [5] it was 0.0395 µM; in [6], 1.15 µM. In addition, the TGI came out at 0.295 µM in test [7], 0.391 µM in test [8], 25.7 µM in test [9] and 1.17 µM in test [10].

Take `CCCCCCOc1ccc(/C=N/NC(N)=S)cc1`: the GI50 in test [1] was 0.432 µM; in test [2] it was 2.83 µM; in [3], 2.54 µM; in test [4], 31.8 µM; in test [5] it was 1.36 µM; in test [6], 1.99 µM. For the same molecule, the GI50 is 1.97 µM in [7], 1.84 µM in test [8], 0.922 µM in [9] and 2.16 µM in [10]. In addition, the TGI in test [1] was 5.26 µM; in test [2], more than 53.1 µM; in test [3] it was 12.1 µM; in test [4], more than 100 µM; in [5] it was 4.41 µM; in test [6], 20.5 µM. For the same molecule, the TGI in [7] amounted to 6.6 µM; in [8], 7.56 µM; in test [9] it was 5.36 µM; in test [10], 9.9 µM.

In the case of `O=C(Cn1c(=O)c(-c2ccccc2)nc2ccccc21)c1cccnc1`, the GI50 in test [1], in [2], in test [3], in test [4], in test [5] and in test [6] was more than 100 µM in each case. Further, the GI50 in [7], in test [8], in [9] and in test [10] was more than 100 µM each time. The TGI in test [1], in test [2], in test [3], in test [4], in test [5] and in test [6] was more than 100 µM throughout. For the same molecule, the TGI in test [7], in [8], in test [9] and in test [10] was more than 100 µM in each case.

As for `C[C@@H]1COCCN1c1nc(-c2cnc(N)cc2C(F)F)nc(N2[C@H](C)COC[C@@H]2C)n1`, the GI50 was 0.295 µM in test [1]; 0.21 µM in [2]; 0.3 µM in test [3]; 0.235 µM in test [4]; 0.174 µM in test [5]; 0.419 µM in test [6]. The GI50 in test [7] was 0.293 µM; in test [8], 0.321 µM; in [9] it was 0.0845 µM; in test [10], 0.302 µM. Besides, the TGI in test [1] came to 9.15 µM; in [2], 5.77 µM; in [3] it was 11.7 µM; in test [4], 12.1 µM; in test [5], 4.28 µM; in test [6], 13 µM. In addition, the TGI in test [7] was 12.7 µM; in [8] it was 10.6 µM; in [9] it was 1.77 µM; in [10], 15.9 µM.

On to `CCON=C1C(C)(C)C(C)(C)C(C)(C)C1(C)C`, for which the TGI in test [1], in [2], in [3], in test [4], in [5] and in test [6] was more than 100 µM throughout. Moreover, the TGI in [7], in [8], in [9] and in test [10] was more than 100 µM in each case.

`CN(C)C(=S)NN=C(c1ccccn1)c1ccccn1`: the GI50 in test [1] is less than 0.01 µM; in [2] it was 0.0247 µM; in test [3], less than 0.0147 µM; in [4] it was 0.101 µM; in test [6], less than 0.0115 µM; in test [7] it was less than 0.01 µM. Also, the GI50 is 0.076 µM in test [8], less than 0.01 µM in [9] and 0.0971 µM in [10]. The TGI is 2.15 µM in test [1]; 23.8 µM in test [2]; 0.349 µM in test [3]; more than 42.8 µM in test [4]; more than 100 µM in test [5]; more than 40.2 µM in [6]. In addition, the TGI amounted to 30.5 µM in test [7], 16.7 µM in [8], 21.8 µM in test [9] and 33.4 µM in [10].

In the case of `CN(C)c1ccc(C(=O)c2ccc(N(C)C)c(N)c2)cc1N`, the GI50 was 2.76 µM in [1]; 8.87 µM in test [2]; 1.67 µM in test [3]; 8.4 µM in test [4]; 1.33 µM in test [5]; 1.14 µM in [6]. The GI50 in test [7] was 1.86 µM; in test [8], 0.422 µM; in [9] it was 1.86 µM; in test [10], 6.08 µM. The TGI in test [1] is more than 57.6 µM; in test [2], more than 100 µM; in [3], 9.74 µM; in test [4] it was more than 100 µM; in test [5] it was more than 100 µM; in test [6], more than 100 µM. Further, the TGI is 8 µM in [7], 1.25 µM in test [8], more than 42.5 µM in test [9] and more than 100 µM in [10].

As for `Nc1nc2c(c3ncccc13)C(c1ccc(Cl)c(Cl)c1)Cc1ncccc1-2` (stereo not drawn), the GI50 is 3.3 µM in test [1]; 4.86 µM in test [2]; 3.2 µM in [3]; 4.24 µM in test [4]; 3.81 µM in test [5]; 3.5 µM in [6]. The GI50 in test [7] is 2.59 µM; in [8] it was 0.867 µM; in test [9], 7.83 µM; in test [10] it was 6.71 µM. Moreover, the TGI was found to be 15.2 µM in test [1]; 18.4 µM in [2]; 12.3 µM in test [3]; 15.3 µM in test [4]; 34 µM in test [5]; 19 µM in test [6]. Moreover, the TGI in test [7] came to 7.63 µM; in test [8], 2.95 µM; in test [9] it was 28.1 µM; in [10], 24.8 µM.

For the molecule `O=C1c2ccccc2-c2c1c1ccc([N+](=O)[O-])cc1c(=O)n2CCNCCCNCCn1c2c(c3ccc([N+](=O)[O-])cc3c1=O)C(=O)c1ccccc1-2`, the GI50 in test [1] is 0.005 µM; in [2], 4.87 µM; in test [3], 0.888 µM; in [4], 0.521 µM; in test [5], 0.00538 µM; in test [6] it was 0.0641 µM. For the same molecule, the GI50 in test [7] is 0.638 µM; in [8], 1.39 µM; in test [9], 0.0249 µM; in test [10] it was 0.144 µM. The TGI amounted to 18.6 µM in test [1]; 28.2 µM in [2]; 23.5 µM in test [3]; 17.6 µM in test [4]; 0.139 µM in test [5]; 5.68 µM in [6]. Besides, the TGI was 5.19 µM in test [7], 18.1 µM in test [8], 4.38 µM in test [9] and 4.04 µM in test [10].

In the case of `COc1cc2c(cc1OCCCOC1=C=C=C(c3ccc4c(c3)c3cc(-c5ccc(OCCCOc6cc7c(cc6OC)C(=O)N6CCC[C@H]6C=N7)cc5)ccc3n4S(=O)(=O)c3ccc(C)cc3)C=C1)N=C[C@@H]1CCCN1C2=O`, the GI50 in test [1] was 0.739 µM; in test [2], 9.35 µM; in test [3], 1.58 µM; in [4], 6.7 µM; in [5] it was 0.665 µM; in test [6], 1.16 µM. In addition, the GI50 in test [7] was 0.959 µM; in test [8], 2.07 µM; in test [9] it was 1.8 µM; in [10], 2 µM. The TGI is more than 50 µM in test [1]; 22.9 µM in test [2]; 6.93 µM in test [3]; 20.5 µM in test [4]; more than 14.5 µM in [5]; 6.33 µM in test [6]. Moreover, the TGI stood at 2.23 µM in test [7], 5.25 µM in [8], 8.69 µM in test [9] and 9.98 µM in test [10].

With `ON(CCc1ccncc1)Cc1ccccc1`, the TGI in test [1], in [2], in [3], in [4], in test [5] and in test [6] was more than 100 µM throughout. Besides, the TGI in test [7], in test [8], in [9] and in test [10] was more than 100 µM each time.
